Values joined by “and” are separate entries in the source; they are usually repeats but may differ in a detail not shown here. Equal values may be shown once.
Key:
ACC Oxidase = biological target: T1, ACC Oxidase (Solanum lycopersicum, UniProt P05116); test: Stoichiometry of O2 consumed to product formed (CO2 or ethylene), extent of uncoupling; assay type: biochemical, Lycopersicon esculentum; settings: for Ratio O2 consumed to product formed, O2:CO2 / Ratio O2 consumed to product formed, O2:ethylene: saturating substrate, 30 mM ascorbate, ambient O2; for Ratio O2 consumed to product formed, O2:CO2: [14C]-CO2 trapping; for Ratio O2 consumed to product formed, O2:ethylene: ethylene by GC-FID
T1 construct: made in house; host or cells: Escherichia coli BL21 (DE3)pLysS
T1 sequence (P05116 whole entry): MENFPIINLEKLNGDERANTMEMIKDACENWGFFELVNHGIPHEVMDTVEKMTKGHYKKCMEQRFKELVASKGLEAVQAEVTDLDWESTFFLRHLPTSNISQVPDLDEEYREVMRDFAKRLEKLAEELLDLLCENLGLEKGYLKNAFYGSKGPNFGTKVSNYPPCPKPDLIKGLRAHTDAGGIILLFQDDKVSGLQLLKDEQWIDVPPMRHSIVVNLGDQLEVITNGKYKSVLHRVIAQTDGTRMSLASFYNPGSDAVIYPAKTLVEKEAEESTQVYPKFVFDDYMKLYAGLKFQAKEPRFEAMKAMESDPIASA
Description: Oxygen consumption was measured using a YSI model 5300 biological oxygen monitor as described above. Reactions contained D-[1-^14C]-Ala, [carboxyl-^14C]-ACC, α-[1-^14C]-AIB, or [1-^14C]-Gly in trace amounts. […] Reactions (1 mL) were initiated with a pre-incubated mixture of ACCO:Fe(II) in a 2:1 ratio. This was done to minimize free Fe(II) in solution. Final concentrations were typically 10 μM ACCO and 5 μM Fe(II). Reactions were quenched by addition of 3 μL of 0.1 M 3-[2-Pyridyl]-5,6-diphenyl-1,2,4-triazine-4,4′-disulfonic acid (FERROZINE®) and the O2 consumption rate was allowed to stabilize. The reaction (0.8 mL) was removed with a gas-tight syringe and injected into a small vial containing 0.1 mL 10% HCl that was inside a larger vial containing the CO2 trap (see above). The acidified reaction mixture and the CO2 trap were stirred for 2 h, and radioactivity from [^14C]—CO2 was determined as described above. Controls measuring the efficiency of the CO2 trap were done by injecting a known amount of [^14C]—NaHCO3 into the vial containing acid, as above, and measuring the amount of [^14C]—CO2 recovered. Efficiency of trapping was routinely ˜98%.
O2 consumption was measured using an Ocean Optics FOXY fiber optic oxygen sensor, with the fiber optic probe inserted through a syringe into an airtight septum, thus preventing ethylene escape. […] ACCO:Fe(II) (final concentrations 10 μM ACCO and 5 μM Fe(II)) was injected by syringe into a ½ dram vial covered with a septum with no headspace. The reaction was quenched as described above. A 10 mL syringe filled with air was used to transfer the reaction mixture to a 10 mL test tube covered with a septum using a cannula. The test tube was stirred vigorously for at least 4 hours before ethylene analysis. Ethylene was measured by injecting 2 mL of the headspace onto a GC equipped with a RT-Alumina GC column (final sample size was 250 μL). Ethylene was separated using ultrapure helium (grade 5) as the carrier gas at 40° C. detected by flame ionization (FID). The data were collected and the peak area was determined. Calibration for ethylene was done with Scotty IV mix 3 hydrocarbon standard (Scotty Specialty Gases). The ppm of ethylene was converted to nanomoles of ethylene per unit volume using the ideal gas law. Dilution of ethylene during sampling was taken into account in the calculations.
The extent of uncoupling for ACCO with both cyclic and acyclic substrate analogs was determined by comparing the amount of O2 consumed and product, either ethylene or CO2, formed. All reactions were carried out at saturating substrate and ascorbate concentrations to minimize potential O2 reaction in the absence of substrate. […] O2 measurements were quenched during or just as the linear phase of the reaction began to fall off due to either loss of Fe(II) from the enzyme or possible enzyme inactivation. The results distinguish between amounts of uncoupling.
For cyclic substrate analogs and ACC, the stoichiometry was determined by comparing O2 consumption with ethylene formation by GC-FID. […] The stoichiometry of O2 consumed to ethylene produced for ACC was 1.44 and to CO2 produced was 1.18, which is identical to that reported by Dong, et. al (Dong et al., 1992).

ACCO:Fe(II) = biological target: T2, ACCO:Fe(II) (Solanum lycopersicum, UniProt P05116); test: Ethylene trapping assay: substrate turnover by ACCO:Fe(II), ethylene trapped as dibromoethane, GC-MS; assay type: biochemical, Lycopersicon esculentum; settings: for Amount of ethylene formed during the reaction time relative to reaction with ACC: 1 hr incubation with ACCO:Fe(II); for Ethylene produced relative to predicted ethylene during the reaction time course: prediction from kcat
T2 construct: made in house; host or cells: Escherichia coli BL21 (DE3)pLysS
T2 sequence (P05116 whole entry): as above
Description: For detection of CO2, trace radiolabeled compound was used as appropriate. A small vial containing the reaction mixture minus enzyme was placed along side of another small vial containing the ethylene or CO2 trap. Both vials were placed in a large vial, which was capped with a septum. ACCO:Fe(II) was introduced into the reaction vial with a syringe and both the reaction vial and trap vial were stirred for 1 h. For [^14C]—CO2 trapping, a 1 mL solution of freshly prepared 10 M NaOH was used as the trapping agent. At the end of the reaction, the trap was removed and added to 15 mL scintillation fluid (Hionic-Fluor, Perkin Elmer) and radioactivity determined by scintillation counting. For ethylene, a […] solution of Br2 in CCl4 was used as the trap. A small amount of 2,5-dibromohexane was added to the trap as an internal standard. At the completion of the reaction, a small excess of 2,3-dimethyl-2-butene was added to the trap to quench unreacted Br2, and the trap was analyzed by GC-MS. Dibromoethane purchased from Aldrich was used as a standard.
The ability of ACCO to turnover ACC or the cyclic substrate analogs (MeACC, ACC-NH2, or ACC-OMe) was determined by the formation of ethylene. Each substrate analog or ACC was incubated for 1 hr with ACCO:Fe(II) in a closed reaction vial containing an ethylene trap that would convert ethylene to dibromoethane. At the end of the reaction time, the ethylene trap was quenched and analyzed for dibromoethane by GC-MS. Reactions with BSA/Fe(II) were used as a control for non-enzymatic ethylene formation. The formation of ethylene was detected in the reaction vials of ACC and all the cyclic analogs in the presence of ACCO:Fe(II). No ethylene was detected in any of the BSA/Fe(II) reactions. The amount of ethylene formed during the reaction time from the cyclic analogs was lower than that from the reaction with ACC (MeACC=14%, ACCNH2=13%, ACC-OMe=79%). If the rates of O2 consumption for the reactions with the different substrates are considered, the kcat for ACC-OMe is approximately 75% of that for ACC, which would be consistent with the amount of ethylene produced during the time course of the reaction. […] Although the purity of both MeACC and ACCNH2 by elemental analysis was determined >95%, it is possible that a small amount of contaminating ACC could be responsible for the ethylene formed in these reactions. To determine whether ethylene was being formed from the substrate analog and not from contaminating ACC, reactions with each analog were done in the presence of increasing concentration of ACCO:Fe(II). In the case of a small amount of contamination where the ACC would be quickly depleted during the reaction, the result would be a non-linear dependence of ethylene production with increasing ACCO concentration.

ACC Oxidase (ACCO, ACO1) = biological target: T3, ACC Oxidase (ACCO, ACO1) (Solanum lycopersicum, UniProt P05116); test: Initial velocity assays (rate of oxygen consumption) with ACC or substrate analogs; assay type: biochemical, Lycopersicon esculentum; settings: for Km compared to ACC (in words) / Km increased by factor compared with ACC / Rate of O2 consumption by ACCO compared with ACC (in words): from Table 1; for Km / Vmax: O2 consumption, 25° C., pH 7.2, [Ascorbate] = 30 mM, [O2] = 258 μM, [CO2/bicarbonate] = 20 mM
T3 construct: made in house; host or cells: Escherichia coli BL21 (DE3)pLysS
T3 sequence (P05116 whole entry): as above
Description: ACCO from Lycopersicon esculentum (ACO1) was produced in Escherichia coli strain BL21 (DE3)pLysS and purified by a two-column purification procedure as previously described (Thrower, J. S. et al., 2001).
Initial velocities were measured by the rate of oxygen consumption at 25° C., pH 7.2, using a YSI model 5300 biological oxygen monitor as previously described (Thrower 2001) with minor modifications. Standard reaction mixture (1 ml) contained 100 mM MOPS, pH 7.2, 20 mM NaHCO3, 100 mM NaCl, 20 mM sodium ascorbate, 0.1 mg/ml BSA, and ACC or substrate analog at various concentrations. Oxygen concentrations were kept at atmospheric concentration and determined using the oxygen monitor that was calibrated with air saturated water (258 μM oxygen at 25° C.). Reactions were initiated with 2 μL ACCO reconstituted with equimolar Fe(NH4)2(SO4)2. Data from initial velocity experiments with varying substrate concentrations were fitted to the Michaelis-Menton equation using the program Kalideograph.
Either cyclic substrate analogs (including inhibitor Me-ACC, ACC-NH2, or ACC-OMe) or acyclic substrate analogs (AIB, D-Ala, or Gly) were used. […] Ascorbate and oxygen concentrations were kept constant at 30 mM and ˜258 μM, respectively.

ACCO = biological target: T4, ACCO (Solanum lycopersicum, UniProt P05116); test: Labeling of ACCO by radiolabeled N-Me-ACC (centrifugal filtration, scintillation counting); assay type: binding, Lycopersicon esculentum; settings: approximately equal concentrations, standard reaction conditions, quenched with Ferrozine
T4 construct: made in house; host or cells: Escherichia coli BL21 (DE3)pLysS
T4 sequence (P05116 whole entry): as above
Description: Radiolabeled N-Me-ACC was incubated with ACCO (approximately equal concentrations) in standard reaction conditions. The reaction was quenched using Ferrozine. The solution was placed in a Millipore 10K NMWL Ultrafree®-MC Centrifugal Filter Unit and centrifuged for 15 min. at 14K rpm. The remaining protein (˜20 μL) was washed with 3×1 mL of either water, reaction buffer, or 0.1% TFA by repeated centrifugation. The protein was collected and radioactivity determined by scintillation counting in 12 mL EcoLite^+ scintillation fluid.

Row | Compound | Products detected (ACC Oxidase) | Ratio O2 consumed to product formed, O2:CO2 (ACC Oxidase) | Ratio O2 consumed to product formed, O2:ethylene (ACC Oxidase) | Amount of ethylene formed during the reaction time relative to reaction with ACC (ACCO:Fe(II)) | Ethylene produced relative to predicted ethylene during the reaction time course (ACCO:Fe(II)) | Km compared to ACC (in words) (ACC Oxidase (ACCO, ACO1)) | kcat slower than the kcat for ACC (ACC Oxidase (ACCO, ACO1); from rates of O2 consumption) | Km (ACC Oxidase (ACCO, ACO1)) | Vmax (ACC Oxidase (ACCO, ACO1)) | Km increased by factor compared with ACC (ACC Oxidase (ACCO, ACO1)) | kcat as percent of that for ACC (ACC Oxidase (ACCO, ACO1); from rates of O2 consumption) | Rate of O2 consumption by ACCO compared with ACC (in words) (ACC Oxidase (ACCO, ACO1)) | Labeling of ACCO by radiolabeled compound (ACCO)
1 | NC1(C(=O)O)CC1 [ACC, 1-aminocyclopropane-1-carboxylic acid, reference compound] | Ethylene, CO2 | 1.18 and 1.2 and 1.18 ± 0.17 | 1.44 and 1.44 ± 0.22 | – | – | – | – | – | – | – | – | – | –
2 | NC(=O)C1(N)CC1 [ACC-NH2] | Ethylene | – | 4.40 ± 1.56 | 13% | about half the predicted ethylene | not significantly altered | ~30% | – | – | – | – | – | –
3 | COC(=O)C1(N)CC1 [ACC-OMe] | Ethylene | – | 1.81 ± 0.72 | 79% | – | – | – | 2760 ± 550 µM | 27.3 ± 1.7 min⁻¹ | ~28 fold | approximately 75% | – | –
4 | CC(C)(N)C(=O)O [AIB, α-aminoisobutyric acid] | Acetone, CO2 | 1.7 and 1.68 ± 0.12 | – | – | – | – | – | – | – | 9.3 fold | – | comparable | –
5 | C[C@@H](N)C(=O)O [D-Alanine, D-alanine] | Acetaldehyde, CO2 | 3.46 ± 0.51 | – | – | – | – | – | – | – | 44.7 fold | – | comparable | –
6 | NCC(=O)O [Glycine, glycine] | CO2 | – | – | – | – | – | – | – | – | – | – | – | –
7 | CNC1(C(=O)O)CC1 [N-Me-ACC] | Ethylene | – | 3.17 ± 0.86 | 14% | about half the predicted ethylene | not significantly altered | ~30% | 107 ± 21 µM | 12.2 ± 0.5 min⁻¹ | – | – | – | irreversibly labels ACCO in a short period of time

— patent publication US8247352B2, “Method of inhibiting ethylene production in plants” (The Regents of the University of California, priority 2005, dated 2012)
